Patent US10793574B2, “TYK2 inhibitors and uses thereof” (Nimbus Lakshmi, Inc., priority 2016, dated 2020)

What was measured:
JAK2 JH1 kinase = JAK2 JH1 kinase (Homo sapiens (Human), UniProt O60674); test: JAK2 radioactive kinase assay; assay type: biochemical; conditions: active kinase assay, ATP 10 μM
Procedure: (§1) Peptide substrate, [KKSRGDYMTMQIG], (20 μM) is prepared in reaction buffer (20 mM Hepes pH 7.5, 10 mM MgCl2, 1 mM EGTA, 0.02% Brij35, 0.02 mg/mL BSA, 0.1 mM […], 2 mM DTT, 1% DMSO. TYK2 (Invitrogen) kinase is added, followed by compounds in DMSO. 33PATP is added to initiate the reaction in ATP at 10 μM. Kinase reaction is incubated for 120 min at room temp and reactions are spotted onto P81 ion exchange paper (Whatman #3698-915), and then washed extensively in 0.75% phosphoric acid, prior to reading the radioactivity counts. For JAK2 (Invitrogen) kinase assay the peptide substrate poly[Glu:Tyr](4:1), 0.2 mg/ml is used, in the reaction carried out the same as for TYK2.

TYK2 JH1 kinase = TYK2 JH1 kinase (Homo sapiens (Human), UniProt P29597); test: Tyk2 radioactive kinase assay; assay type: biochemical; conditions: active kinase assay, ATP 10 μM
Chain of TYK2 JH1 kinase (P29597 833-1187): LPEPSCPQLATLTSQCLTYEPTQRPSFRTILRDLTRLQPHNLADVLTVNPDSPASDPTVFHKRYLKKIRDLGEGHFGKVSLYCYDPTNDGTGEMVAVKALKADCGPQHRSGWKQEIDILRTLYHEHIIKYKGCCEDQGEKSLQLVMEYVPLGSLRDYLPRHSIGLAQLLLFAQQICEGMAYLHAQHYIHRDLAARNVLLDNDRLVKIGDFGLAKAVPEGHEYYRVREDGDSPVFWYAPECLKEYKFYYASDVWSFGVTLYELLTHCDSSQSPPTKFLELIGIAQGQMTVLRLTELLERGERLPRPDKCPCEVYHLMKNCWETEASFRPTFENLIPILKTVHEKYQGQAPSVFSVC
Procedure: as §1

Chain of JAK2 JH1 kinase (O60674 808-1132): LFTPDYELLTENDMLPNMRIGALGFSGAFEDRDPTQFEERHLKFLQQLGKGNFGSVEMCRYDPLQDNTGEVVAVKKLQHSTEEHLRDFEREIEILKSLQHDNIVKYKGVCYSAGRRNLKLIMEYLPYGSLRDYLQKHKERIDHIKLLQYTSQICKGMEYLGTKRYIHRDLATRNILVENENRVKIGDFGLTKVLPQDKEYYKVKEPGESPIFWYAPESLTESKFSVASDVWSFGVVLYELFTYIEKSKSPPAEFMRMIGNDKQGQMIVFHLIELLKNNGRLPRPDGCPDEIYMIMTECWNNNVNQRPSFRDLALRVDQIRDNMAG

COC(=O)c1nnc(-c2cnc(NC(=O)C3CC3)cc2Nc2cccc(-c3ncn(C)n3)c2OC)o1 [VIII-4, methyl 5-(6-(cyclopropanecarboxamido)-4-((2-methoxy-3-(1-methyl-1H-1,2,4-triazol-3-yl)phenyl)amino)pyridin-3-yl)-1,3,4-oxadiazole-2-carboxylate]
inhibitory activity against JAK2 JH1 kinase function (JAK2 JH1 kinase): no detectable inhibitory activity
inhibitory activity against TYK2 JH1 kinase function (TYK2 JH1 kinase): no detectable inhibitory activity

COc1c(Nc2cc(NC(=O)C3CC3)nc3[nH]n(C)c(=O)c23)cccc1-c1nnn(C)n1 [Compound I-1, N-(4-((2-methoxy-3-(2-methyl-2H-tetrazol-5-yl)phenyl)amino)-2-methyl-3-oxo-2,3-dihydro-1H-pyrazolo[3,4-b]pyridin-6-yl)cyclopropanecarboxamide]
inhibitory activity against TYK2 JH1 kinase function (TYK2 JH1 kinase): no detectable inhibitory activity

COc1c(Nc2cc(NC(=O)C3CC3)ncc2-c2nnc(C(F)(F)F)o2)cccc1-c1ncn(C)n1 [VIII-3, N-(4-((2-methoxy-3-(1-methyl-1H-1,2,4-triazol-3-yl)phenyl)amino)-5-(5-(trifluoromethyl)-1,3,4-oxadiazol-2-yl)pyridin-2-yl)cyclopropanecarboxamide]
inhibitory activity against JAK2 JH1 kinase function (JAK2 JH1 kinase): no detectable inhibitory activity
inhibitory activity against TYK2 JH1 kinase function (TYK2 JH1 kinase): no detectable inhibitory activity

COc1c(Nc2cc(NC(=O)C3CC3)ncc2-c2ncc(F)s2)cccc1-c1nnn(C)n1 [VIII-2, N-(5-(5-fluorothiazol-2-yl)-4-((2-methoxy-3-(2-methyl-2H-tetrazol-5-yl)phenyl)amino)pyridin-2-yl)cyclopropanecarboxamide]
inhibitory activity against JAK2 JH1 kinase function (JAK2 JH1 kinase): no detectable inhibitory activity
inhibitory activity against TYK2 JH1 kinase function (TYK2 JH1 kinase): no detectable inhibitory activity

COc1c(Nc2cc(NC(=O)C3CC3)ncc2-c2ncc(Cl)s2)cccc1-c1nnn(C)n1 [VIII-1, N-(5-(5-chlorothiazol-2-yl)-4-((2-methoxy-3-(2-methyl-2H-tetrazol-5-yl)phenyl)amino)pyridin-2-yl)cyclopropanecarboxamide]
inhibitory activity against JAK2 JH1 kinase function (JAK2 JH1 kinase): no detectable inhibitory activity
inhibitory activity against TYK2 JH1 kinase function (TYK2 JH1 kinase): no detectable inhibitory activity

COCc1ccnc(Nc2cc(Nc3cccc(-c4nnn(C)n4)c3OC)c3c(=O)n(C)[nH]c3n2)c1 [Compound I-2, 4-((2-methoxy-3-(2-methyl-2H-tetrazol-5-yl)phenyl)amino)-6-((4-(methoxymethyl)pyridin-2-yl)amino)-2-methyl-1,2-dihydro-3H-pyrazolo[3,4-b]pyridin-3-one]
inhibitory activity against TYK2 JH1 kinase function (TYK2 JH1 kinase): no detectable inhibitory activity
